Values quoted from earlier work, collected in paper PMC4457351 (Journal of Visualized Experiments : JoVE, 2014).

Details: read-out: Kd(calcium)

Kd: ~0.345 µM
Substance: Fluo-4
